From patent publication US7339023B2, “Partial peptide mimetics and methods” (Regents of the University of Minnesota, priority 2002, dated 2008)

Key:
[1] = tested on: bFGF-stimulated human umbilical vascular EC (HUVEC); test: EC proliferation measurement, [3H]-thymidine incorporation assay; type: cell-based; conditions: for EC Proliferation % Inhibition at 25 μM: bFGF-stimulated HUVEC; for IC50: bFGF-stimulated (10 ng/ml) HUVEC, 3H-thymidine incorporation, 3 days
Description: Human umbilical vein derived EC (HUVEC) were harvested from normal human umbilical cords by perfusion with 0.125% trypsin/EDTA. Harvested HUVECs were cultured in gelatin coated tissue culture flasks and subcultured 1:3 once a week in culture medium (RPMI-1640 with 20% human serum (HS), supplemented with 2 mM glutamine and 100 U/ml penicillin and 0.1 mg/ml streptomycin). Bovine capillary EC (BCE) were kindly provided by Dr. M. Furie (State University of New York, Stony Brook, USA) and were cultured in fibronectin coated tissue culture flasks in RPMI-1640 medium containing 10% FCS, glutamine and antibiotics.
EC proliferation was measured using a [^3H]-thymidine incorporation assay. Proliferation of bFGF-stimulated (10 nanogram per milliliter (ng/ml)) human umbilical vascular EC (HUVEC) cultures was measured by quantification of ^3H-thymidine incorporation. Proliferation is expressed as mean counts per minute (cpm) of quadruplicate cultures in three independent experiments (±SEM). EC were seeded at 5000 cells/well in flat-bottomed tissue culture plates and grown for 3 days in the absence or presence of regulators, in culture medium. During the last 6 hours of the assay, the culture was pulsed with 0.5 μCi [methyl-^3H]-thymidine/well. Human umbilical vein derived EC (HUVEC) were harvested from normal human umbilical cords by perfusion with 0.125% trypsin/EDTA. Harvested HUVECs were cultured in gelatin coated tissue culture flasks and subcultured 1:3 once a week in culture medium (RPMI-1640 with 20% human serum (HS), supplemented with 2 mM glutamine and 100 U/ml penicillin and 0.1 mg/ml streptomycin).

bovine EC (BCE) = test: In vitro angiogenesis assay, collagen gel-based sprout formation; type: cell-based; parameters: key to % Sprouting: —: No effect on the assay; conditions: for % Sprouting: BCE on cytodex-3 beads in collagen gel, 20 ng/mL bFGF, 24 hours, * = significant inhibition (p < 0.03); for Sprouting in collagen gel-based sprout formation assay: versus control showing numerous sprouts, data not shown
Description: Sprouting and tube formation of bovine EC (BCE) were studied using cytodex-3 beads overgrown with BCE in a 3-dimensional collagen gel (vitrogen-100, Collagen Corp., Fremont, Calif., USA) as described in D. Van der Schaft et al., Blood, 96,176-181 (2000). Following gelation, culture medium containing 20 ng/mL bFGF, with or without […] or DBF analogs, was applied on top of the gel. After 24 hours of cell culture at 37° C., photographs were made (not shown). The amount of sprouting in each well (i.e., the total length of the sprouts) was quantified by the computer program NIH image. To quantify differences in sprouting and tube formation, statistical analysis was performed using the Mann-Whitney U test.

[2] = tested on: MA148 human ovarian carcinoma tumors; test: Immunohistochemistry of tumor sections (CD31 microvessel density, PCNA proliferation, TUNEL apoptosis); type: in vivo, mice; conditions: for Vessel density relative to control: anti-CD31 staining of tumor cross-sections; for End Points (mean number of vessel end points) / Branch Points (mean number of vessel branch points/nodes per image) / Proliferation (PCNA-staining, white pixels per field) / Vessel Density (CD31-staining, white pixels per field) / Vessel Length (mean total vessel length per image): tumors of treated mice, ± standard error; for End Points (mean number of vessel end points): after skeletonization
Description: Immunohistochemistry was used to assess microvessel density and the extent of total cell apoptosis. Tumor tissue was embedded in tissue freezing medium (Miles Inc, Elkart, Ind.) and shock frozen in liquid nitrogen. […] sections of tissue were prepared for immunohistochemical analysis. For this, tissue sections were brought to room temperature, air dried overnight, and then fixed in acetone for 10 minutes. Slides were allowed to air dry for at least 30 minutes and were washed three times for 5 minutes each in phosphate-buffered saline (PBS, pH 7.4). Samples were then blocked with PBS containing 0.1% bovine serum albumin and 3% human serum albumin for at least 30 minutes at room temperature in a humidified box. Samples were subsequently incubated with phycoerytrin (PE)-conjugated monoclonal antibody to CD31 (PECAM-1) in a 1:50 dilution (Pharmigen, San Diego, Calif.) to stain for microvessel density. After 1-hour incubation at room temperature, slides were washed with PBS and immediately imaged using an Olympus BX-60 fluorescence microscope at 200× magnification.
To assess the extent of total cell apoptosis, tissue sections were stained by using the TUNEL (terminal deoxyribonucleotidyl transferase-mediated dUTP-nick-end labeling) assay, which was performed according to the manufacturer's instructions (in situ cell death detection kit, fluorescein; TUNEL, Roche). Digital images were stored and processed using Adobe Photoshop (Adobe Inc., Mountain View Calif.).
Quantification of microvessel density, the rate of proliferation and total cell apoptosis were determined as described earlier (R. Wild et al., Microvasc. Res., 59, 368-376 (2000)). Statistical analysis was performed using the Student's t test.

[3] = tested on: MA148 human ovarian carcinoma; test: MA148 xenograft ovarian carcinoma tumor model in athymic mice, tumor volume; conditions: for Inhibition of tumor growth ten days post-treatment: at sacrifice
Description: In all studies, female athymic nude mice (nu/nu, 5-6 weeks old) were used. These mice were purchased from the National Cancer Institute and allowed to acclimatize to local conditions for at least one week. Animals were given water and standard chow ad libitum, and were kept on a 12-hour light/dark cycle. […] Compounds were diluted in 100 mM SDS and administered using osmotic mini-pumps (Durect, Cupertino, Calif.). Exponentially growing MA148 human ovarian carcinoma cells, kindly provided by Prof. Ramakrishnan (R. P. Dings et al., Cancer Res., 63, 382-385 (2003)) were cultured in RPMI 1640 medium (Life Technologies, Grand Island, N.Y.). This medium was supplemented with 10% fetal bovine serum and 1% penicillin/streptomycin (Cellgro, Mediatech, Washington, D.C.) at 37° C. and 5% CO2. One hundred microliters (100 μL) of this tumor cell suspension (2×10^7 cells/ml) was then injected subcutaneously into the right flank of each mouse. Pumps were implanted into the left flank of mice for subcutaneous administration of compound over a 28-day treatment span.
Two variants of this model were used: prevention and intervention. For the prevention variant, treatment was initiated at the time of inoculation with MA148 cells. For the intervention variant, tumors were allowed to grow to an average size of 50 mm^3 (usually day 7 post inoculation) before treatment was initiated. With either variant, animals were randomized prior to the initiation of treatment. Treatment was administered via osmotic mini-pumps (Durect, Cupertino, Calif.), which were implanted subcutaneously in the left flank of mice. […] In each study, control groups of animals were administered either PBS or PBS containing human serum albumin.
Tumor volume was determined by measuring the diameters of tumors using calipers (Scienceware, Pequannock, N.J.) using the equation for the volume of a spheroid: (a^2×b×π)/6, where ‘a’ is the width and ‘b’ the length of the tumor. Measurements were performed two or three times per week. At the conclusion of an experiment, tumor weights were also taken following excision of the tumors from euthanized animals.

| Substance | EC Proliferation % Inhibition at 25 μM [1] | IC50 [1] | % Sprouting (bovine EC (BCE)) | other results |
| --- | --- | --- | --- | --- |
| ANIKLSVQMKL-[DBF]-IIVKLND [11DBF7] | 92% | 12 µM | 23 ± 10%* | Sprouting in collagen gel-based sprout formation assay (bovine EC (BCE)): highly reduced sprouting; Vessel density relative to control [2]: significantly reduced; End Points (mean number of vessel end points) [2]: 21.2 ± 3.3 mean pixel counts per image; Branch Points (mean number of vessel branch points/nodes per image) [2]: 3.1 ± 0.9 mean pixel counts per image; Proliferation (PCNA-staining, white pixels per field) [2]: 553 ± 75 mean pixel counts per image; Vessel Density (CD31-staining, white pixels per field) [2]: 2879 ± 385 mean pixel counts per image; Vessel Length (mean total vessel length per image) [2]: 3.0 ± 0.6 mean pixel counts per image; Inhibition of tumor growth at the end of the four-week administration period (day 35) ([3]; intervention, day 35): about 50%; Inhibition of tumor growth ten days post-treatment ([3]; intervention): about 50%; Reduction of tumor volume relative to control animals ([3]; prevention model: treatment from time of inoculation, subcutaneous mini-pumps, 10 mg/kg/day): up to 90% |
| QMKL-[DBF]-IIVKLND [4DBF7] | 46% | 25 µM | 99 ± 5% |  |
| SVQMKL-[DBF]-IIV [6DBF3] |  | > 25 µM |  |  |
| ANIKLSVQMKL-[DBF]-I [11DBF1] |  | 23 ± 5 µM |  |  |
| L-[DBF]-IIVKLND [1DBF7] | 0% | > 25 µM | — |  |
| SVQMKL-[DBF]-I [6DBF1] |  | 76.1 ± 10.9 µM |  |  |
| ANIKLSVQMKL-[DBF]-IIVKLN [11DBF6] |  | 22 µM |  |  |
| IKLSVQMKL-[DBF]-IIVKLND [9DBF7] | 57% | 20 µM | 76 ± 40%* |  |
| SVQMKL-[DBF]-II [6DBF2] |  | > 25 µM |  |  |
| MKL-[DBF]-IIVKLND [3DBF7] | 0% | > 25 µM | 84 ± 30% |  |
| SVQMKL-[DBF]-IIVKLND [6DBF7] | 68% | 15 µM | 60 ± 12%* | Effect on tube formation (bovine EC (BCE)): significant inhibitory effect on tube formation; Sprouting in collagen gel-based sprout formation assay (bovine EC (BCE)): highly reduced sprouting; Number of apoptotic tumor cells ([2]; TUNEL, control 311±103): 851±162; Vessel density relative to control [2]: significantly reduced; End Points (mean number of vessel end points) [2]: 21.7 ± 2.6 mean pixel counts per image; Branch Points (mean number of vessel branch points/nodes per image) [2]: 2.3 ± 1.1 mean pixel counts per image; Proliferation (PCNA-staining, white pixels per field) [2]: 501 ± 68 mean pixel counts per image; Vessel Density (CD31-staining, white pixels per field) [2]: 2213 ± 256 mean pixel counts per image; Vessel Length (mean total vessel length per image) [2]: 2.5 ± 0.4 mean pixel counts per image; Inhibition of tumor growth ten days post-treatment ([3]; intervention): about 50% |
| NIKLSVQMKL-[DBF]-IIVKLND [10DBF7] | 69% | 12 µM | 57 ± 17.5%* |  |
| ANIKLSVQMKL-[DBF]-IIVK [11DBF4] |  | 35 µM |  |  |
| SVQMKL-[DBF]-IIVKLN [6DBF6] |  | 42 µM |  |  |
| SVQMKL-[DBF]-IIVK [6DBF4] |  | > 25 µM |  |  |
